As usually defined, the MIC is the lowest concentration that inhibits growth of the organism.

Converted amounts (≈) assume the structure as drawn. The source made the active and inactive calls. No cut-off for these calls is given here. A value given as a limit tells only on which side of the number the result lay.

For assay [1], the system named is Mycobacterium tuberculosis. As to the kind of experiment: Antitubercular activity against Mycobacterium tuberculosis H37Rv ATCC 27294 assessed as inhibition of bacterial growth incubated for 7 days by Presto blue resazurin microtiter plate assay. The class given is functional. The note with it: H37Rv ATCC 27294, 168 h, time 7 day. Background: Alamar Blue is a resazurin reagent that responds to reducing activity.

For the next assay, the system named is Staphylococcus aureus. In words: Antibacterial activity against Staphylococcus aureus ATCC 29213 assessed as inhibition of bacterial growth incubated for 16 to 18 hrs by CLSI based microdilution method. The format is functional. The settings on record: time 16-18 hrs.
For assay [2], the system named is Mycobacterium tuberculosis. As to the kind of experiment: Bactericidal activity against Mycobacterium tuberculosis H37Rv ATCC 27294 assessed as reduction in colony formation at 1 to 10 times of MIC incubated for 6 to 7 days by time-kill assay. The class given is functional, organism-based. The note with it: time 6-7 day.

Turning to `Cc1ccc(-n2cc(CSc3nc(=O)c4cc(Cl)cc([N+](=O)[O-])c4s3)nn2)c(C)c1`, the MIC in assay [1] was 32 µg/mL (≈ 69.6 µM); in the assay on Staphylococcus aureus, not below 64 µg/mL. On the same counts, the results for `Cc1ccc(-n2cc(CSc3nc(=O)c4cc(Cl)cc([N+](=O)[O-])c4s3)nn2)cc1` are 8 µg/mL (≈ 17.9 µM) and not below 64 µg/mL. `O=c1nc(SCc2cn(-c3cccc(Cl)c3)nn2)sc2c([N+](=O)[O-])cc(Cl)cc12`: the MIC is 16 µg/mL (≈ 34.3 µM) in assay [1] and not below 64 µg/mL in the assay on Staphylococcus aureus.

With `O=c1nc(SCc2cn(-c3ccc(F)c(Cl)c3)nn2)sc2c([N+](=O)[O-])cc(Cl)cc12`, the MIC in assay [1] is 8 µg/mL (≈ 16.5 µM); in the assay with Staphylococcus aureus, not below 64 µg/mL. Consider `CN[C@@H]1[C@H](O[C@H]2[C@H](O[C@H]3[C@H](O)[C@@H](O)[C@H](N=C(N)N)[C@@H](O)[C@@H]3N=C(N)N)O[C@@H](C)[C@]2(O)C=O)O[C@@H](CO)[C@H](O)[C@H]1O` [STREPTOMYCIN], for which the MIC in assay [1] stood at 1 µg/mL (≈ 1.72 µM). Consider `O=c1nc(SCc2cn(-c3ccccc3)nn2)sc2c([N+](=O)[O-])cc(Cl)cc12`, for which the MIC in assay [1] is 32 µg/mL (≈ 74.1 µM); in the assay on Staphylococcus aureus it was not below 64 µg/mL. Regarding `CO[C@H]1/C=C/O[C@@]2(C)Oc3c(C)c(O)c4c(O)c(c(/C=N/N5CCN(C)CC5)c(O)c4c3C2=O)NC(=O)/C(C)=C\C=C\[C@H](C)[C@H](O)[C@@H](C)[C@@H](O)[C@@H](C)[C@H](OC(C)=O)[C@@H]1C` [RIFAMPIN], the MIC in assay [1] was found to be 0.06 µg/mL (≈ 0.0729 µM). The outcome in assay [2] was Active. As to `O=c1ccc2cc(-n3cc(CSc4nc(=O)c5cc(Cl)cc([N+](=O)[O-])c5s4)nn3)ccc2o1`, the MIC in assay [1] was 32 µg/mL (≈ 64 µM); in the assay on Staphylococcus aureus it was not below 64 µg/mL. On the same counts, the results for `O=c1nc(SCc2cn(-c3ccc(Br)cc3)nn2)sc2c([N+](=O)[O-])cc(Cl)cc12` are 4 µg/mL (≈ 7.83 µM) and not below 64 µg/mL.

On to `Cc1cccc(-n2cc(CSc3nc(=O)c4cc(Cl)cc([N+](=O)[O-])c4s3)nn2)c1`, for which the figures for the MIC (in assay [1]; in the assay with Staphylococcus aureus) were 8 µg/mL (≈ 17.9 µM) and not below 64 µg/mL, respectively. With `O=c1nc(SCc2cn(-c3ccc(O)cc3)nn2)sc2c([N+](=O)[O-])cc(Cl)cc12`, the MIC in assay [1] was 64 µg/mL (≈ 143 µM); with Staphylococcus aureus it was not below 64 µg/mL. For the compound `CCCCCCOc1ccc(-n2cc(CSc3nc(=O)c4cc(Cl)cc([N+](=O)[O-])c4s3)nn2)cc1`, the values for the MIC (in assay [1]; in the assay on Staphylococcus aureus) were 8 µg/mL (≈ 15 µM) and not below 64 µg/mL, respectively. The corresponding values for `O=c1nc(SCc2cn(-c3ccc(Oc4ccccc4)cc3)nn2)sc2c([N+](=O)[O-])cc(Cl)cc12` are 32 µg/mL (≈ 61.1 µM) and not below 64 µg/mL. Turning to `O=c1nc(SCc2cn(-c3ccc(F)c(F)c3)nn2)sc2c([N+](=O)[O-])cc(Cl)cc12`, the MIC was 8 µg/mL (≈ 17.1 µM) in assay [1] and not below 64 µg/mL with Staphylococcus aureus.

With `O=c1nc(SCc2cn(-c3ccc(F)cc3)nn2)sc2c([N+](=O)[O-])cc(Cl)cc12`, the values for the MIC (in assay [1]; in the assay on Staphylococcus aureus) were 8 µg/mL (≈ 17.8 µM) and not below 64 µg/mL, respectively. The corresponding values for `CC(C)Oc1cccc(-n2cc(CSc3nc(=O)c4cc(Cl)cc([N+](=O)[O-])c4s3)nn2)c1` are 64 µg/mL (≈ 131 µM) and not below 64 µg/mL. The corresponding values for `COc1cc(-n2cc(CSc3nc(=O)c4cc(Cl)cc([N+](=O)[O-])c4s3)nn2)cc(OC)c1OC` are 64 µg/mL (≈ 123 µM) and not below 64 µg/mL. On to `NS(=O)(=O)c1cccc(-n2cc(CSc3nc(=O)c4cc(Cl)cc([N+](=O)[O-])c4s3)nn2)c1`, for which the MIC in assay [1] was more than 64 µg/mL; in the assay with Staphylococcus aureus it was not below 64 µg/mL. The corresponding values for `COc1cc(OC)cc(-n2cc(CSc3nc(=O)c4cc(Cl)cc([N+](=O)[O-])c4s3)nn2)c1` are more than 64 µg/mL and not below 64 µg/mL. As for `O=C(O)c1cccc(-n2cc(CSc3nc(=O)c4cc(Cl)cc([N+](=O)[O-])c4s3)nn2)c1`, the figures for the MIC (in assay [1]; with Staphylococcus aureus) were more than 64 µg/mL and not below 64 µg/mL, respectively. In the case of `O=c1nc(SCc2cn(-c3ccc4ccccc4c3)nn2)sc2c([N+](=O)[O-])cc(Cl)cc12`, the MIC is 64 µg/mL (≈ 133 µM) in assay [1] and not below 64 µg/mL in the assay with Staphylococcus aureus. Turning to `O=c1nc(SCc2cn(-c3cccc(C(F)(F)F)c3)nn2)sc2c([N+](=O)[O-])cc(Cl)cc12`, the MIC in assay [1] is 8 µg/mL (≈ 16 µM); with Staphylococcus aureus, not below 64 µg/mL. The corresponding values for `O=c1nc(SCc2cn(-c3ccc([N+](=O)[O-])cc3)nn2)sc2c([N+](=O)[O-])cc(Cl)cc12` are 16 µg/mL (≈ 33.6 µM) and not below 64 µg/mL. For the compound `O=c1nc(SCc2cn(-c3ccccc3Cl)nn2)sc2c([N+](=O)[O-])cc(Cl)cc12`, the MIC is 32 µg/mL (≈ 68.6 µM) in assay [1] and not below 64 µg/mL in the assay on Staphylococcus aureus. Consider `O=C(O)c1ccc(-n2cc(CSc3nc(=O)c4cc(Cl)cc([N+](=O)[O-])c4s3)nn2)cc1`, for which the MIC in assay [1] was more than 64 µg/mL; with Staphylococcus aureus it was not below 64 µg/mL. The corresponding values for `N#Cc1cccc(-n2cc(CSc3nc(=O)c4cc(Cl)cc([N+](=O)[O-])c4s3)nn2)c1` are 64 µg/mL (≈ 140 µM) and not below 64 µg/mL. The corresponding values for `O=c1nc(SCc2cn(-c3ccc(N4CCCCC4)cc3)nn2)sc2c([N+](=O)[O-])cc(Cl)cc12` are 64 µg/mL (≈ 124 µM) and not below 64 µg/mL. Take `O=C(O)c1ccc(-n2cc(CSc3nc(=O)c4cc(Cl)cc([N+](=O)[O-])c4s3)nn2)cc1O`: the figures for the MIC (in assay [1]; with Staphylococcus aureus) were more than 64 µg/mL and not below 64 µg/mL, respectively. For the compound `NNC(=O)c1ccncc1` [ISONIAZID], the MIC in assay [1] came out at 0.03 µg/mL (≈ 0.219 µM).

For `NS(=O)(=O)c1ccc(-n2cc(CSc3nc(=O)c4cc(Cl)cc([N+](=O)[O-])c4s3)nn2)cc1`, the MIC was more than 64 µg/mL in assay [1] and not below 64 µg/mL in the assay with Staphylococcus aureus. Regarding `CC(=O)c1cccc(-n2cc(CSc3nc(=O)c4cc(Cl)cc([N+](=O)[O-])c4s3)nn2)c1`, the MIC in assay [1] is 32 µg/mL (≈ 67.5 µM); in the assay on Staphylococcus aureus, not below 64 µg/mL. The corresponding values for `COc1ccc(-n2cc(CSc3nc(=O)c4cc(Cl)cc([N+](=O)[O-])c4s3)nn2)cc1OC` are 32 µg/mL (≈ 65 µM) and not below 64 µg/mL. In the case of `O=c1nc(SCc2cn(-c3ccccc3F)nn2)sc2c([N+](=O)[O-])cc(Cl)cc12`, the MIC in assay [1] is 16 µg/mL (≈ 35.6 µM); in the assay on Staphylococcus aureus, not below 64 µg/mL. The corresponding values for `COc1ccc(-n2cc(CSc3nc(=O)c4cc(Cl)cc([N+](=O)[O-])c4s3)nn2)cc1` are 32 µg/mL (≈ 69.3 µM) and not below 64 µg/mL. On the same counts, the results for `O=c1nc(SCc2cn(-c3ccc(N4CCOCC4)c(F)c3)nn2)sc2c([N+](=O)[O-])cc(Cl)cc12` are 64 µg/mL (≈ 120 µM) and not below 64 µg/mL. On the same counts, the results for `O=c1nc(SCc2cn(-c3cccnc3)nn2)sc2c([N+](=O)[O-])cc(Cl)cc12` are 32 µg/mL (≈ 73.9 µM) and not below 64 µg/mL. Regarding `O=c1nc(SCc2cn(-c3ccc(N4CCCCC4)c(F)c3)nn2)sc2c([N+](=O)[O-])cc(Cl)cc12`, the MIC was 64 µg/mL (≈ 120 µM) in assay [1] and not below 64 µg/mL in the assay with Staphylococcus aureus. On to `CC[C@@H](CO)NCCN[C@@H](CC)CO` [ETHAMBUTOL], for which the MIC in assay [1] stood at 1 µg/mL (≈ 4.89 µM). Consider `O=c1nc(SCc2cn(-c3cccc(F)c3)nn2)sc2c([N+](=O)[O-])cc(Cl)cc12`, for which the MIC in assay [1] is 8 µg/mL (≈ 17.8 µM); with Staphylococcus aureus, not below 64 µg/mL. On the same counts, the results for `O=c1nc(SCc2cn(-c3cccc([N+](=O)[O-])c3)nn2)sc2c([N+](=O)[O-])cc(Cl)cc12` are 32 µg/mL (≈ 67.1 µM) and not below 64 µg/mL.

The values above are taken from ChEMBL document CHEMBL5107972 (RSC Med Chem, 2022).
